Test results: patent US10485881B2, “Nanoparticle drug conjugates” (Memorial Sloan Kettering Cancer Center, priority 2014, dated 2019)
“Also recorded” adds a separate entry of the source. Read-outs that look alike come from different tables or passages of the source.

How the values were obtained:
[1] = biological target: T1, trypsin (Bos taurus, UniProt P00760); assay: Drug release assay with trypsin; format: biochemical, bovine; details: for half-life at 25 μM: bovine, pH 7.2, free linker-drug constructs, HPLC at 348 nm, 37° C., phosphate buffer pH 7.2, read-out: Trypsin t1/2 (time when 50% of the drug is released from linker); for Time to complete hydrolysis / complete release of drug with trypsin: free linker-drug constructs, monitored by HPLC or LCMS
T1 construct: purchased Sigma-Aldrich
T1 sequence (P00760 24-246): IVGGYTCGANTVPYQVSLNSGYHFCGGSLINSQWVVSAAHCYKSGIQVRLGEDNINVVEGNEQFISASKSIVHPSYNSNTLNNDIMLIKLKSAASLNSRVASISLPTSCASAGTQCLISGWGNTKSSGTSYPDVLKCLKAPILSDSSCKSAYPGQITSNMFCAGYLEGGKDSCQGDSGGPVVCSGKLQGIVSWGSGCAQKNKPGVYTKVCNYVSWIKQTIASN
Method: Drug Release Assays with Trypsin:
For analysis, 70 μL portions were removed and quenched with acid (HCl) at specified time points (e.g., 5, 15, 30, 60, 120 minutes or longer) then run on HPLC/LCMS. NDCs were stored in water at 4° C. Trypsin stocks were prepared as follows: 1 mg of trypsin was dissolved in 1 mL water, aliquoted, then immediately flash frozen and stored at −80° C. for up to four weeks. Enzyme activity was tested prior to drug release assay using the substrate Z-Arg-Arg-para-nitro-aniline. The % Free Drug (FIGS. 3 and S3) is the quantity of free drug divided by the initial quantity of drug loaded for the linker-drug construct or NDC. The quantity of free drug is determined by area of the HPLC peak corresponding to the released drug at 348 nm. The quantity of drug loaded is the area of the HPLC peak, at 348 nm, for the linker-drug construct or NDC prior to enzyme treatment. As the C'dot-(Cy5)-PEG-mal has background absorbance at 348 nm, a background subtraction for the NDC is necessary. All buffers and solutions were prepared using ultra-pure water (18 Me-cm resistivity).

[2] = biological target: cathepsin B (Homo sapiens, UniProt P07858); assay: Drug release assay with cathepsin B; format: biochemical; details: free linker-drug constructs; for Hydrolysis / drug release in the presence of cathepsin B: monitored by HPLC or LCMS; for half-life at 25 μM: HPLC at 348 nm, sodium acetate buffer pH 5.0, NH = no hydrolysis, read-out: Cathepsin B t1/2 (time when 50% of the drug is released from linker)
Method: Drug Release Assays with Cathepsin B:
For analysis, 70 μL portions were removed and quenched with acid (HCl) at specified time points (e.g., 5, 15, 30, 60, 120 minutes or longer) then run on HPLC/LCMS. NDCs were stored in water at 4° C. […] Enzyme activity was tested prior to drug release assay using the substrate Z-Arg-Arg-para-nitro-aniline. The % Free Drug (FIGS. 4A, 4B, 6A and 6B) is the quantity of free drug divided by the initial quantity of drug loaded for the linker-drug construct or NDC, as described in the previous paragraph. All buffers and solutions were prepared using ultra-pure water (18 MΩ-cm resistivity).

[3] = biological target: EGFR (phospho-Tyr168) in H1650 cells (Homo sapiens, UniProt P00533, DEL746-750); assay: PhosphoEGFR assay with H1650 cells (western blot); details: 1 and 10 μM, compared with gefitinib
Method: Serum starved cells were incubated with each compound over a period of 18 hours, then subject to EGF stimulation.
PhosphoEGFR Assay with H1650 Cells:
H1650 cells were seeded (1.5 million cells) in 6-well plates with 2 ml of 10% FBS DEM medium and grown for 24 hrs. Cells were washed with 1 mL of serum free DEM medium, then incubated with gefitinib or NDCs at indicated concentrations overnight (18 hrs). Cells were then treated with 50 ng/mL EGF for 5 minutes, then washed with 1 mL of PBS. […] 1 mL of 10% FBS DEM medium was added to wells, and cells were transferred to 15 mL conical tubes containing 10 mL of 10% FBS DEM medium. Cells were spun down at 3000 rpm for 5 minutes at 4° C. The cell pellets were washed with 1 mL cold PBS, transferred to 1.5 mL tubes, and spun down. PBS was decanted and 70 μL of RIPA (containing protease and phosphatase inhibitors) was added to the pellet, titurated, and incubated for 10 minutes on ice. Tubes were spun at maximum speed for 10 minutes at 4° C. Lysate was transferred to new 1.5 ml tubes and stored at −80° C. Protein concentrations were determined by the Bradford assay. Western blots were run on a Life Technologies apparatus, using Novex 8% tris-glycine gels (1.5 mm×15 wells), tris-glycine SDS running buffer, NuPAGE transfer buffer, 0.1% Tween-20 in 1×TBS washing buffer, and 5% milk in the washing buffer as the blocking buffer. […]

| Inhibition of phospho-Tyr168 in EGFR [3] | Molecule | half-life at 25 μM [1] | Time to complete hydrolysis / complete release of drug with trypsin [1] | Hydrolysis / drug release in the presence of cathepsin B [2] | half-life at 25 μM [2] | half-life at 25 μM ([2]; cathepsin B (isolated enzyme)) |
| --- | --- | --- | --- | --- | --- | --- |
|  | COc1cc2ncnc(Nc3ccc(F)c(Cl)c3)c2cc1OCCCNC(=O)[C@H](CCCNC(=N)N)NC(=O)[C@H](Cc1ccccc1)NC(=O)CCOCCOCCNC(=O)CCOCCOCCNC(=O)CCOCCOCCNC(=O)CS [Phe-Arg-APdMG (3), Mercaptoacetamido-(dPEG2)3-Phe-Arg-APdMG] | 9 min | ≤ 60 min | no hydrolysis was observed; also recorded: no drug release was observed |  |  |
|  | COc1cc2ncnc(Nc3ccc(F)c(Cl)c3)c2cc1OCCCNC(=O)CCOCCOCCNC(=O)[C@H](CCCNC(=N)N)NC(=O)[C@H](Cc1ccccc1)NC(=O)CCOCCOCCNC(=O)CCOCCOCCNC(=O)CCOCCOCCNC(=O)CS [Phe-Arg-dPEG2APdMG (4), Mercaptoacetamido-(dPEG2)3-Phe-Arg-dPEG2APdMG] | ≤ 2 min | 10 min | completely hydrolyzed | 110 min |  |
|  | COc1cc2ncnc(Nc3ccc(F)c(Cl)c3)c2cc1OCCCNC(=O)OCc1ccc(NC(=O)[C@H](CCCCN)NC(=O)[C@H](Cc2ccccc2)NC(=O)CCOCCOCCOCCOCCOCCOCCOCCOCCS)cc1 [Phe-Lys-PABC-APdMG (5), HS-dPEG8-Phe-Lys-PABC-aminopropyl-dMG] | < 1 min | 10 min |  |  | < 1 min |
| reduced activity | Amino-dPEG2-aminopropyl-dMG [dPEG2APdMG 2] |  |  |  |  |  |
